According to patent US20250270170A1, “2,3-DIMETHOXY-5-METHYL-1,4-BENZOQUINONE ALKYL ALCOHOL DERIVATIVE AND USE THEREOF” (BEIJING ANJIANXI BIO-MEDICAL TECHNOLOGY CO., LTD., priority 2021, published 2025):
“And” between values parts separate entries of the source, which are not always exact repeats. Identical values can stand only once. “Also recorded” adds a separate entry of the source.

How the values were obtained:
Assay type in all cases: in vivo, C57BL/6J mice
[1] = system: cisplatin-induced acute kidney damage in mice; experiment: Example 11: serum urea nitrogen (Bun) in cisplatin-induced acute kidney damage model
Experimental: (§1) 42 male C57BL/6J mice (age: 6 to 8 weeks, body weight 18-20 g, certificate number: 11400700238365) were purchased from Si Pei Fu (Beijing) Biotechnology Co., Ltd., and raised in an SPF-grade animal room of the Institute of Materia Medica, Chinese Academy of Medical Sciences, at a temperature of 20 to 25° C., a relative humidity of 40% to 70%, and a cycle of 12 hours of light and 12 hours of dark. The animals had free access to water and food. After 3 days of normal feeding, mice with good physical conditions after the veterinary examination were selected for this assay. Before grouping, a marker was used to mark on the base of the animals' tail. After grouping, each animal was marked with an ear cutout (7 mice in each group).
(§2) Assay animals: 42 7-week-old male C57 mice were used for animal testing after an adaptive feeding.
(§3) Group 1: blank control group;
(§4) The preparation of the R01 formulation administration test solution was the same as that in Example 5: an appropriate amount of the R01 formulation was weighed according to the three dosages set in the assay, respectively, and an appropriate volume of 0.5% CMC-Na aqueous solution was added. The mixture was vortexed and sonicated until mixed evenly, to give the administration test solutions with concentrations of […], respectively, which were ready for use.
(§5) Animal testing period: 7 days (excluding adaptive feeding), hereinafter referred to as: D1-D7.
(§6) 1. The first group was a solvent control group: N=7, all mice were males (the same below); • a) 0.5% solution of sodium carboxymethyl cellulose was gavagely administered from D1 to D6 (twice a day for each animal, with an interval of 8 hours between the morning and the afternoon). • b) Physiological saline was intraperitoneally injected in one-time on D4. • c) On D7, blood was collected from the orbit for euthanasia (300 ul of serum was extracted), the left kidney was fixed in formaldehyde, and the right kidney was preserved in liquid nitrogen (WB study may be carried out).
(§7) 1) The concentrations of urea nitrogen and creatinine in peripheral blood serum were tested.
(§8) The body weight of the animals when being grouped for administration in each group was recorded. The body weight and the kidney weight at the end of the assay were also recorded, and the kidney coefficient was calculated. The creatinine and urea nitrogen values in the blood samples sent for testing were recorded. The kidneys were stained with HE and PAS, and the slides were scanned. A report was issued after the pathological analysis.
(§9) The assay data were calculated and processed statistically using Microsoft Office Excel 2007 software. Unless otherwise specified, the data were expressed as mean±standard error (Mean±SE), and t-test was used for comparison between two groups.

[2] = system: cisplatin-induced acute kidney damage in mice; experiment: Example 11: kidney weight and kidney coefficient in cisplatin-induced acute kidney damage model
Experimental: as §1, §2, §3, §4, §5, §6
(§10) 3) Each animal was weighed before euthanasia, and the weight was recorded. Two kidneys were weighed as soon as possible after euthanasia, and the weight was recorded. Then, the two kidneys were quickly fixed or cryopreserved, and the kidney coefficient of the mouse was calculated (kidney weight/mouse weight).
as §8, §9

[3] = Example 11: body weight in cisplatin-induced acute kidney damage model; conditions: Amifostine group
Experimental: as §1, §2, §3, §4, §5, §6, §10, §8, §9

[4] = system: cisplatin-induced acute kidney damage in mice; experiment: Example 11: serum creatinine (Cre) in cisplatin-induced acute kidney damage model
Experimental: as §1, §2, §3, §4, §5, §6, §7, §8, §9

[5] = system: cisplatin-induced acute kidney damage in mice; experiment: Example 11: renal pathology (HE, PAS) and pathological scoring; conditions: cisplatin 10 mg/kg alone (model) or with amifostine 50 mg/kg i.p. half an hour before; trihydrate
Experimental: as §1, §2, §3, §4, §5
1. […]
as §8, with “The kidneys were stained with HE and PAS, and the slides were scanned. A report was issued after the pathological analysis.” left out

[6] = group mean, cisplatin model, Amifostine group
[7] = individual animals No. 1-7, cisplatin model, Amifostine group, trihydrate

In the case of NCCCNCCSP(=O)(O)O [amifostine, Amifostine trihydrate, reference compound], the “serum urea nitrogen value” ([1]; cisplatin 10 mg/kg alone (vs blank, P<0.05) or with amifostine 50 mg/kg i.p. (P<0.01)) is reported as “significantly lower than that of the model group”, the “Urea nitrogen (Bun) level after the assay, x (mean)” value [1, 6] is reported as 8.1 mg/dL and the “Urea nitrogen (Bun) level after the assay” value [1, 7] is reported as 10.92 mg/dL and 8.76 mg/dL and 6.62 mg/dL and 7.23 mg/dL and 7.62 mg/dL and 8.78 mg/dL and 6.47 mg/dL. For the same compound, the “Kidney coefficient (kidney weight/body weight), x (mean)” value [2, 6] was 0.014, the “Kidney weight after the assay, x (mean)” value [2, 6] was 0.224 g and the “Kidney coefficient (kidney weight/body weight)” value [2, 7] was 0.014 (3×) and 0.015 (2×) and 0.013 (2×). For the same compound, the “Kidney weight after the assay” value [2, 7] was 0.223 g and 0.249 g and 0.202 g and 0.227 g and 0.220 g and 0.205 g and 0.241 g, the “Kidney coefficient (kidney weight/body weight)” value ([2]; with cisplatin 10 mg/kg, amifostine 50 mg/kg i.p., R01 6, 18, 36 mg/kg bid) was “equivalent to that of the blank control group” and the “Body weight, Before x- after x” value ([3]; difference of group means, cisplatin model) was 4.1 g. For the same compound, the “Body weight before cisplatin modeling, Before x (mean)” value ([3]; group mean) was 20.9 g, the “Body weight after the assay, After x (mean)” value ([3]; group mean, cisplatin model) was 16.8 g and the “Body weight before cisplatin modeling” value ([3]; individual animals No. 1-7, trihydrate) was 20.2 g and 20.6 g (2×) and 20.4 g and 20.5 g and 21.8 g and 22.4 g. For the same compound, the “Body weight after the assay” value ([3]; individual animals No. 1-7, cisplatin model, trihydrate) was 18 g and 16.7 g and 16.8 g and 17.1 g and 16.3 g and 15.8 g and 17.2 g, the serum creatinine value ([4]; cisplatin 10 mg/kg alone (vs blank, P<0.01) or with amifostine 50 mg/kg i.p. / R01 6, 18, 36 mg/kg bid) was “equivalent to that of the blank control group” and the “Serum creatinine (Cre) level after the assay, x (mean)” value [4, 6] was 16.1 mg/dL. The “Serum creatinine (Cre) level after the assay” value [4, 7] was 9 mg/dl and 19 mg/dl and 14 mg/dl and 18 mg/dl (3×) and 17 mg/dl and the “pathological damage of kidneys” value [5] was “slight renal tubular damage and blurred renal tubular epithelial edges; also recorded: significantly reduced”.
